Measurements from PubChem BioAssay AID286 (DTP/NCI, 2004).
Values joined by “and” are separate entries in the source; they are usually repeats but may differ in a detail not shown here. Identical values can stand only once. Toxic doses and inconclusive results are not listed.

Tested on: BDF1 mice, M5076 sarcoma ip, median survival T/C
Experiment: NCI In Vivo Anticancer Drug Screen. Data for tumor model Sarcoma M5076 (intraperitoneal) in B6D2F1 (BDF1) mice
Settings: endpoint: median survival time, higher = longer survival
Protocol: The antitumor activity of compounds was measured in mice bearing transplantable tumors. Survival or tumor size were measured and the results are expressed as the measurement made in the treated group (T) divided by the measurement made in the vehicle treated control group (C). The tumor model used in this assay is Sarcoma M5076 (intraperitoneal) in B6D2F1 (BDF1) mice

## COc1cc2c(cc1OC)C1C(=O)c3ccc4c(c3OC1CO2)CC(C(C)(O)CO)O4 (stereo unspecified)
dose: 2.0 mg/kg/injection, schedule: Q01DX009 (ip), vehicle: DMSO
  T/C: 110 % of control
dose: 4.0 mg/kg/injection, schedule: Q01DX009 (ip), vehicle: DMSO
  T/C: 96 % of control
dose: 8.0 mg/kg/injection, schedule: Q01DX009 (ip), vehicle: DMSO
  T/C: 99 % of control

## CC[C@]1(O)C[C@H]2CN(CCc3c([nH]c4ccccc34)[C@@](C(=O)OC)(c3cc4c(cc3OC)N(C)[C@H]3[C@@](O)(C(=O)OC)[C@H](OC(C)=O)[C@]5(CC)C=CCN6CC[C@]43[C@@H]65)C2)C1
dose: 0.38 mg/kg/injection, schedule: Q04DX005 (ip), vehicle: saline
  T/C: 180 % of control
dose: 0.75 mg/kg/injection, schedule: Q04DX005 (ip), vehicle: saline
  T/C: 293 % of control
dose: 1.5 mg/kg/injection, schedule: Q04DX005 (ip), vehicle: saline
  T/C: 202 % of control and 401 % of control
dose: 3.0 mg/kg/injection, schedule: Q04DX005 (ip), vehicle: saline
  T/C: 401 % of control and 160 % of control

## CS(C)(O)NC(N)=O
dose: 50.0 mg/kg/injection, schedule: Q04DX004 (ip), vehicle: water
  T/C: 104 % of control
dose: 100.0 mg/kg/injection, schedule: Q04DX004 (ip), vehicle: water
  T/C: 102 % of control
dose: 200.0 mg/kg/injection, schedule: Q04DX004 (ip), vehicle: water
  T/C: 104 % of control
dose: 400.0 mg/kg/injection, schedule: Q04DX004 (ip), vehicle: water
  T/C: 100 % of control
dose: 800.0 mg/kg/injection, schedule: Q04DX004 (ip), vehicle: water
  T/C: 107 % of control

## Nc1nncs1
dose: 100.0 mg/kg/injection, schedule: Q04DX004 (ip), vehicle: saline with Tween-80
  T/C: 113 % of control
dose: 100.0 mg/kg/injection, schedule: Q04DX004 (ip), vehicle: saline
  T/C: 112 % of control and 116 % of control and 121 % of control
dose: 100.0 mg/kg/injection, schedule: Q04DX005 (ip), vehicle: saline with Tween-80
  T/C: 112 % of control
dose: 100.0 mg/kg/injection, schedule: Q04DX005 (ip), vehicle: saline
  T/C: 119 % of control
dose: 200.0 mg/kg/injection, schedule: Q04DX004 (ip), vehicle: saline with Tween-80
  T/C: 116 % of control
dose: 200.0 mg/kg/injection, schedule: Q04DX004 (ip), vehicle: saline
  T/C: 112 % of control and 124 % of control
dose: 200.0 mg/kg/injection, schedule: Q04DX005 (ip), vehicle: saline with Tween-80
  T/C: 121 % of control
dose: 200.0 mg/kg/injection, schedule: Q04DX005 (ip), vehicle: saline
  T/C: 116 % of control and 124 % of control
dose: 400.0 mg/kg/injection, schedule: Q04DX004 (ip), vehicle: saline with Tween-80
  T/C: 119 % of control
dose: 400.0 mg/kg/injection, schedule: Q04DX004 (ip), vehicle: saline
  T/C: 110 % of control
dose: 400.0 mg/kg/injection, schedule: Q04DX005 (ip), vehicle: saline
  T/C: 109 % of control
dose: 800.0 mg/kg/injection, schedule: Q04DX004 (ip), vehicle: saline with Tween-80
  T/C: 124 % of control
dose: 800.0 mg/kg/injection, schedule: Q04DX004 (ip), vehicle: saline
  T/C: 106 % of control
dose: 800.0 mg/kg/injection, schedule: Q04DX005 (ip), vehicle: saline
  T/C: 151 % of control

## O=C1c2c(O)ccc(O)c2C(=O)c2c(NCCNCCO)ccc(NCCNCCO)c21
dose: 0.25 mg/kg/injection, schedule: Q04DX004 (ip), vehicle: water
  T/C: 236 % of control
dose: 0.5 mg/kg/injection, schedule: Q04DX004 (ip), vehicle: water
  T/C: 260 % of control
dose: 0.5 mg/kg/injection, schedule: Q04DX005 (ip), vehicle: saline
  T/C: 401 % of control
dose: 1.0 mg/kg/injection, schedule: Q04DX004 (ip), vehicle: water
  T/C: 260 % of control
dose: 1.0 mg/kg/injection, schedule: Q04DX005 (ip), vehicle: saline
  T/C: 321 % of control
dose: 2.0 mg/kg/injection, schedule: Q04DX004 (ip), vehicle: water
  T/C: 260 % of control
dose: 2.0 mg/kg/injection, schedule: Q04DX005 (ip), vehicle: saline
  T/C: 99 % of control
dose: 4.0 mg/kg/injection, schedule: Q04DX004 (ip), vehicle: water
  T/C: 100 % of control

## N[C@H](C(=O)O)[C@@H]1CC(Cl)=NO1
dose: 15.0 mg/kg/injection, schedule: Q04DX005 (ip), vehicle: saline
  T/C: 113 % of control
dose: 60.0 mg/kg/injection, schedule: Q04DX005 (ip), vehicle: saline
  T/C: 160 % of control
dose: 120.0 mg/kg/injection, schedule: Q04DX005 (ip), vehicle: saline
  T/C: 195 % of control and 160 % of control

## CC1(C)N=C(N)N=C(N)N1c1ccc(CCCCc2ccc(S(=O)(=O)F)cc2Cl)c(Cl)c1
dose: 5.0 mg/kg/injection, schedule: Q01DX009 (ip), vehicle: Klucel (hydroxypropylcellulose) (HPC)
  T/C: 220 % of control
dose: 10.0 mg/kg/injection, schedule: Q01DX009 (ip), vehicle: Klucel (hydroxypropylcellulose) (HPC)
  T/C: 251 % of control
dose: 20.0 mg/kg/injection, schedule: Q01DX009 (ip), vehicle: Klucel (hydroxypropylcellulose) (HPC)
  T/C: 303 % of control
dose: 40.0 mg/kg/injection, schedule: Q01DX009 (ip), vehicle: Klucel (hydroxypropylcellulose) (HPC)
  T/C: 388 % of control
dose: 40.0 mg/kg/injection, schedule: Q01DX009 (ip), vehicle: saline with Tween-80
  T/C: 224 % of control
dose: 60.0 mg/kg/injection, schedule: Q01DX009 (ip), vehicle: saline with Tween-80
  T/C: 224 % of control

## C=C1C(=O)OC2C1C(OC(=O)/C(C)=C\C)CC(C)=C1C(=O)C3OC3(C)C12O (stereo unspecified)
dose: 1.25 mg/kg/injection, schedule: Q01DX009 (ip), vehicle: saline + alcohol
  T/C: 97 % of control
dose: 2.5 mg/kg/injection, schedule: Q01DX009 (ip), vehicle: saline + alcohol
  T/C: 105 % of control
dose: 5.0 mg/kg/injection, schedule: Q01DX009 (ip), vehicle: saline + alcohol
  T/C: 105 % of control and 121 % of control
dose: 20.0 mg/kg/injection, schedule: Q01DX009 (ip), vehicle: saline + alcohol
  T/C: 117 % of control

## COC1CC(C)C(OC)C2=CC(=O)C=C(NC(=O)/C(C)=C/C=C\C(C)C(OC(N)=O)/C(C)=C\C(C)C1OC)C2=O (stereo unspecified)
dose: 6.25 mg/kg/injection, schedule: Q04DX004 (ip), vehicle: saline + Tween-80 + alcohol
  T/C: 124 % of control
dose: 12.5 mg/kg/injection, schedule: Q04DX004 (ip), vehicle: saline + Tween-80 + alcohol
  T/C: 124 % of control

## O=C1c2ccccc2C(=O)c2c(NCCNCCO)ccc(NCCNCCO)c21
dose: 5.0 mg/kg/injection, schedule: Q04DX005 (ip), vehicle: saline
  T/C: 277 % of control
dose: 10.0 mg/kg/injection, schedule: Q04DX005 (ip), vehicle: saline
  T/C: 357 % of control
